Counter-ions that a name gives are not always drawn.
How the values were obtained:
[1] = molecular target: hNET (Homo sapiens, UniProt P23975); experiment: hNET binding according to Mahaney et al.; details: printed in the Protocol B column with footnote
[2] = molecular target: human norepinephrine transporter (hNET) (Homo sapiens, UniProt P23975); experiment: hNET uptake, Protocol B: cell based norepinephrine reuptake assay using recombinant hNET (MDCK-Net6 cells); details: hNET Function IC50 (nM), protocol not stated
Sequence of human norepinephrine transporter (hNET) (P23975 whole entry): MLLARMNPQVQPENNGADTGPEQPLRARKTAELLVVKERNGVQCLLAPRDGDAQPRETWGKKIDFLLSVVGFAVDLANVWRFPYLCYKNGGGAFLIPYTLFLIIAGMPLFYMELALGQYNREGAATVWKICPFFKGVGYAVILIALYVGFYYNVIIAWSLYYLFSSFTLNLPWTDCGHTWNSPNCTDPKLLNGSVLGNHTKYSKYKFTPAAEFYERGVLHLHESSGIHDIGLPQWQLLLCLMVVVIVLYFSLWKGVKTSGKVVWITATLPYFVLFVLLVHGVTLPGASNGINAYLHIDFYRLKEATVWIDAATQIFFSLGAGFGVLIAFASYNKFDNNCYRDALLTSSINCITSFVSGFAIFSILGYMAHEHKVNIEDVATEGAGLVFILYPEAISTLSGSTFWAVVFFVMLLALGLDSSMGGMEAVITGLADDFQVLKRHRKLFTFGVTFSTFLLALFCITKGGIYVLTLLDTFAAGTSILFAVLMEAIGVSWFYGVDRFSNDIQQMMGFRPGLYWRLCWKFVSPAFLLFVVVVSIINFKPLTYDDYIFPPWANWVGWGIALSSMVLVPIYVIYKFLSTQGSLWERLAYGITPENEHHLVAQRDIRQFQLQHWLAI

[3] = molecular target: Dopamine Transporter (hDAT) (Homo sapiens, UniProt Q01959); experiment: Dopamine transporter (hDAT) membrane binding assay, [3H]-WIN 35,428
Sequence of Dopamine Transporter (hDAT) (Q01959 whole entry): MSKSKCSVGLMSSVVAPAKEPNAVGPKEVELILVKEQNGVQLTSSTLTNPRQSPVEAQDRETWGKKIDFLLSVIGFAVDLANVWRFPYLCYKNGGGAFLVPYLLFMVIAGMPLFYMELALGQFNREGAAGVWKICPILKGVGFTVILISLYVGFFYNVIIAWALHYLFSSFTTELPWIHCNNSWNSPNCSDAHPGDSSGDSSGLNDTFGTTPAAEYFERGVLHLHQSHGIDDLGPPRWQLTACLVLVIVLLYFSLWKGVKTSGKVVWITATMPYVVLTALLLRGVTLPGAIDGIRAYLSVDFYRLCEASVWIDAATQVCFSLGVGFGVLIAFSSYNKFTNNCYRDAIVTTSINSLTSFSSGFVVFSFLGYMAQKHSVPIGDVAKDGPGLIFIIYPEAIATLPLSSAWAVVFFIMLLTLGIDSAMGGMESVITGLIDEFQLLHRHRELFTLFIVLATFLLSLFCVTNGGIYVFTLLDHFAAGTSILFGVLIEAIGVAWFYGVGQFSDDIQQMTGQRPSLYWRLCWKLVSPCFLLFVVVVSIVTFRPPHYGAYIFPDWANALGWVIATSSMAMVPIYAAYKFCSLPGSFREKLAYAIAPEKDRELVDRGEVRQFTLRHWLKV

[4] = Rat liver microsomal stability assay; assay type: in vitro ADME; details: pH 7.4; rat liver microsomes, 37° C., NADPH; read-out: RLM stability t1/2

Sequence of hNET (P23975 whole entry): as the sequence (P23975 whole entry) above

| IC50 [1] [nM] | IC50 [2] [nM] | IC50 [3] [nM] | half-life at 1 µM [4] [min] | SMILES |
| --- | --- | --- | --- | --- |
| 679 |  |  |  | NCCCCCN1c2ccccc2N(c2ccc(F)cc2F)S1(=O)=O [Example 116, 5-[3-(2,4-difluorophenyl)-2,2-dioxido-2,1,3-benzothiadiazol-1(3H)-yl]pentan-1-amine hydrochloride] |
|  | 8.4 | 449 | 11 | CNCCCCN1c2ccccc2N(c2ccc(F)cc2F)S1(=O)=O |
|  | 11.3 | 366 | 10 | CNCCCN1c2ccccc2N(c2ccc(F)cc2F)S1(=O)=O [drawing 165] |
|  | 2.6 | 598 | 2 | CNCCCN1c2ccccc2N(c2ccccc2)S1(=O)=O [drawing 157] |
|  | 46.1 | 52.8 | 19 | CNCCCCN1c2ccccc2N(c2ccc(F)cc2)S1(=O)=O [drawing 167] |
|  | 2.7 | 479 | 2 | CNCCCN1c2ccccc2N(c2cc(F)ccc2F)S1(=O)=O [drawing 164] |
|  | 2.3 | 9330 | 1 | CNCCCCN1c2ccccc2N(c2c(F)cccc2F)S1(=O)=O [drawing 162] |
|  | 2.56 | 665 | 1 | CCNCCCN1c2ccccc2N(c2ccccc2F)S1(=O)=O [drawing 170] |
|  | 10.8 | 178 | 2 | CNCCCN1c2ccccc2N(c2cccc(OC)c2)S1(=O)=O [drawing 169] |
|  | 19.8 | 122 | 18 | CNCCCN1c2ccccc2N(c2ccc(F)c(F)c2)S1(=O)=O [drawing 163] |
|  | 7.06 | 276 | < 1 | CNCCCN1c2ccccc2N(c2ccccc2C)S1(=O)=O [drawing 168] |
